Measured values as given in BindingDB's records for doi:10.1016/j.bmc.2018.12.038 (Peking University, 2019).

Biological target: T1, CD81 antigen (Homo sapiens, UniProt P60033)
T1 sequence (P60033 whole entry): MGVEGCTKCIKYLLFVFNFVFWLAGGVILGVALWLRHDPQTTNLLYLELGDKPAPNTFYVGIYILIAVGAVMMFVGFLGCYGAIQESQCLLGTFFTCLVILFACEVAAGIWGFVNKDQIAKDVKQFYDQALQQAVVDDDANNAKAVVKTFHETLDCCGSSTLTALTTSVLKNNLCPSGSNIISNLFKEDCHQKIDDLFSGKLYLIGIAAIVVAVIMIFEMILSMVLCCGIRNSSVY
Assay: Binding affinity to CD81 (unknown origin) assessed as […] rate constant by surface plasmon resonance assay
Details: read-out: kon (M-1-s-1)

Compound | kon [M⁻¹ s⁻¹]
CC(=O)[C@@H]1C[C@H](C(=O)O)[C@@]1(C)CC/C=C(\C)C(=O)O | 2.02e+06
C/C(=C\CC[C@]1(C)[C@@H](C(=O)O)C[C@H]1[C@](C)(O)C(=O)O)C(=O)O | 2.53e+08
